These antisense oligonucleotides have a phosphorothioate backbone; sugars and methylation of C are not fully specified.
Molecular target: ABCB1
Details: ASO
Further: test concentration or dose not given here.

First: AAAAGTTCTTCTTTGCTGCT
Second: ACTGACAGTTGGTTTCTTT
The remaining target (mRNA or protein) (fraction of control) of the first is higher: 0.92 for the first, 0.84 for the second.

First: ACTTTTATTGTTCAGTTTAAA
Second: AGTTCTTCTTTGCTGCTCCA
The remaining target (mRNA or protein) (fraction of control) of the first is higher: 0.97 for the first, 0.7 for the second.

Going from ATACTGACAGTTGGTTTCT to CATCCCGACCTCGCGCTCCT, the remaining target (mRNA or protein) (fraction of control) falls from 0.65 to 0.

CCCGACCTCGCGCTCCTTGG and CGCGTCCTTGGAACGGCCAC are the same in remaining target (mRNA or protein) (fraction of control): 0.15 for the first, 0.15 for the second.

Going from CGGTCCCCTTCAAGATCCAT to CGTCCTTGGAACGGCCACCA, the remaining target (mRNA or protein) (fraction of control) rises from 0 to 0.18.

Compared with GACCTCGCGCTCCTTGGAAC, GAGCTTGGAAGAGCCGCTACT is higher in remaining target (mRNA or protein) (fraction of control): 0.17 for the first, 0.54 for the second.

Going from TACTCCGACTTTAGTGGAAA to TCCCCTTCAAGATCCATCCC, the remaining target (mRNA or protein) (fraction of control) falls from 0.84 to 0.2.

Going from TCCGACTTTAGTGGAAAGAC to TCTTCTTTGCTCCTCCATTG, the remaining target (mRNA or protein) (fraction of control) falls from 0.9 to 0.67.

First: TGACAGTTGGTTTCTTTCC
Second: TTGAGCTTGGAAGAGCCGCTA
The remaining target (mRNA or protein) (fraction of control) of the first is higher: 0.85 for the first, 0.54 for the second.

Compared with TTGCGGTCCCCTTCAAGATC, TTTTATTGTTCAGTTTAAAAA is higher in remaining target (mRNA or protein) (fraction of control): 0.09 for the first, 0.92 for the second.

Molecular target: ABCC1
Details: ASO

First: ACCGGATGGCGGTGGCTGCT
Second: AGCCCCGGAGCGCCATGCCG
The remaining target (mRNA or protein) (fraction of control) of the first is lower: 0.73 for the first, 0.74 for the second.

AGGCCCTGCAGTTCTGACCA and CAGGAGGTCCGATGGGGCGC are the same in remaining target (mRNA or protein) (fraction of control): 0.95 for the first, 0.95 for the second.

First: CCGGTGGCGCGGGCGGCGGC
Second: CGCATCTCTGTCTCTCCTGG
The remaining target (mRNA or protein) (fraction of control) of the first is lower: 0.69 for the first, 0.77 for the second.

Compared with CGCGCTGCTTCTGGCCCCCA, CGGGGCCGCAACGCCGCCTG is higher in remaining target (mRNA or protein) (fraction of control): 0.56 for the first, 0.95 for the second.

First: CTCCTCCCTGGGCGCTGGCA
Second: GCGGCGATGGGCGTGGCCAG
The remaining target (mRNA or protein) (fraction of control) of the first is higher: 0.74 for the first, 0.73 for the second.

Going from GCTCACACCAAGCCGGCGTC to GGCACCCACACGAGGACCGT, the remaining target (mRNA or protein) (fraction of control) rises from 0.78 to 0.79.

First: GGTGATCGGGCCCGGTTGCT
Second: TCGGAGCCATCGGCGCTGCA
The remaining target (mRNA or protein) (fraction of control) of the first is lower: 0.68 for the first, 0.8 for the second.

TGCTGTTCGTGCCCCCGCCG gave a remaining target (mRNA or protein) (fraction of control) of 0.51.

Molecular target: Agtr1a (rat)
Details: ASO

First: AACAGAGGGTTCAGGCAGTT
Second: AAGGGTATAGCTGGTGAGAAT
The remaining target (mRNA or protein) (fraction of control) of the first is lower: 0.29 for the first, 0.39 for the second.

Going from ACACGTGTGAAGGAACACAC to AGAAGAGTTAAGGGCCATTT, the remaining target (mRNA or protein) (fraction of control) falls from 0.51 to 0.46.

Compared with AGACACGTGTGAAGGAACAC, AGAGGGTTCAGGCAGTTGTT is lower in remaining target (mRNA or protein) (fraction of control): 0.5 for the first, 0.3 for the second.

First: AGCGTCGAATTCCGAGACTC
Second: ATAGCTGGTGAGAATGATAAG
The remaining target (mRNA or protein) (fraction of control) of the first is lower: 0.29 for the first, 0.44 for the second.

First: ATGCGGTCGATGCTGAGACA
Second: CAGCAGAAGAGTTAAGGGCC
The remaining target (mRNA or protein) (fraction of control) of the first is higher: 0.75 for the first, 0.37 for the second.

Compared with CTGGCGTAGAGGTTGAAGCT, GATGGTGATGGGCATGGCAG is lower in remaining target (mRNA or protein) (fraction of control): 0.41 for the first, 0.32 for the second.

Going from GCAGAAGAGTTAAGGGCCAT to GCGGTCGATGCTGAGACACG, the remaining target (mRNA or protein) (fraction of control) rises from 0.32 to 0.35.

Compared with GGATGCGGTCGATGCTGAGA, GGCGTAGAGGTTGAAGCTCA is lower in remaining target (mRNA or protein) (fraction of control): 0.39 for the first, 0.27 for the second.

First: GGGAGCGTCGAATTCCGAGA
Second: GGGTTCAGGCAGTTGTTAAA
The remaining target (mRNA or protein) (fraction of control) of the first is lower: 0.21 for the first, 0.29 for the second.

Compared with GGTATAGCTGGTGAGAATGAT, GGTCGATGCTGAGACACGTG is higher in remaining target (mRNA or protein) (fraction of control): 0.46 for the first, 0.49 for the second.

Going from GTCGAATTCCGAGACTCATA to GTGATGGGCATGGCAGTGTC, the remaining target (mRNA or protein) (fraction of control) rises from 0.25 to 0.29.

First: TAAAGGGTATAGCTGGTGAGA
Second: TGGTGATGGGCATGGCAGTG
The remaining target (mRNA or protein) (fraction of control) of the first is higher: 0.35 for the first, 0.21 for the second.

Sequence TTCAGGCAGTTGTTAAAATA has a remaining target (mRNA or protein) (fraction of control) of 0.86.

Molecular target: IGF2
Details: ASO

First: ACCGCGCTTTCCTCCCGCCG
Second: AGCCCCAGCGACCCCAGCGT
The remaining target (mRNA or protein) (fraction of control) of the first is lower: 0.53 for the first, at least 1 for the second.

Compared with CCCACCTCCATCACCATGGC, CGATCTTGTGCGGTGTCCTG is higher in remaining target (mRNA or protein) (fraction of control): 0.52 for the first, 0.86 for the second.

CGCGCATGTCATCGGGAATG and CTCTTCTGCCCTGTTTTGTC are the same in remaining target (mRNA or protein) (fraction of control): 0.31 for the first, 0.31 for the second.

Compared with GGAACTCAGTGGAACTCAGG, GTGAAGGCAGACCACCGACC is higher in remaining target (mRNA or protein) (fraction of control): 0.11 for the first, 0.27 for the second.

Compared with TAAATAAGGACCAGCTCCCA, TACAAGATAGTACAGTACGC is lower in remaining target (mRNA or protein) (fraction of control): 0.41 for the first, 0.33 for the second.

With TCACCATGGCCAGCCCCAGC the remaining target (mRNA or protein) (fraction of control) was 0.81.

Molecular target: IL11
Details: ASO

TTGGACGGACGGCCGTGGAG was tested, and the remaining target (mRNA or protein) (fraction of control) was 0.75.

Molecular target: NSMAF
Details: ASO

Going from TTAAAATCCGTTGCACCA to TTCCATGTGCAGCTTTTC, the remaining target (mRNA or protein) (fraction of control) falls from 0.55 to 0.34.

Compared with TTTAGGTAGATGTCGGAA, TTTCCTTTCATGGTGACT is lower in remaining target (mRNA or protein) (fraction of control): 0.52 for the first, 0.43 for the second.

Sequence TTTGTGAAGTGTCTATTG has a remaining target (mRNA or protein) (fraction of control) of 0.51.

Molecular target: PRKCA
Details: ASO

Going from AAAACGTCAGCCATGGTCCC to AAGAGAGAGACCCTGAACAG, the remaining target (mRNA or protein) (fraction of control) rises from 0.39 to 0.62.

Going from AGCCGTGGCCTTAAAATTTT to AGTCGGTGCAGTGGCTGGAG, the remaining target (mRNA or protein) (fraction of control) rises from 0.84 to 0.88.

Compared with ATGGGGTGCACAAACTGGGG, ATTTTCAGGCCTCCATATGG is lower in remaining target (mRNA or protein) (fraction of control): 0.94 for the first, 0.82 for the second.

Compared with CACTGCGGGGAGGGCTGGGG, CCCCAACCACCTCTTGCTCC is lower in remaining target (mRNA or protein) (fraction of control): at least 1 for the first, 0.39 for the second.

First: CCCGGGAAAACGTCAGCCAT
Second: CGCCGTGGAGTCGTTGCCCG
The remaining target (mRNA or protein) (fraction of control) of the first is lower: 0.52 for the first, 0.54 for the second.

Compared with CTGCCTCAGCGCCCCTTTGC, GAGACCCTGAACAGTTGATC is higher in remaining target (mRNA or protein) (fraction of control): 0.47 for the first, 0.61 for the second.

Going from GATAATGTTCTTGGTTGTAA to GCAGAGGCTGGGGACATTGA, the remaining target (mRNA or protein) (fraction of control) falls from 0.85 to 0.81.

First: GGATTCACTTCCACTGCGGG
Second: GGGCTGGGGAGGTGTTTGTT
The remaining target (mRNA or protein) (fraction of control) of the first is lower: 0.82 for the first, 0.95 for the second.

Going from GTCAGCCATGGTCCCCCCCC to GTTCTCGCTGGTGAGTTTCA, the remaining target (mRNA or protein) (fraction of control) rises from 0.46 to 0.52.

Compared with TCAAATGGAGGCTGCCCGGC, TGGAATCAGACACAAGCCGT is higher in remaining target (mRNA or protein) (fraction of control): 0.66 for the first, 0.89 for the second.

Molecular target: RAF1
Details: ASO

ACCATCAACATCCACTTGCG and ATTCTTAAACCTGAGGGAGC cannot be ordered by remaining target (mRNA or protein) (fraction of control): at least 1 for the first, at least 1 for the second.

Going from CAAGAAAACCTGTATTCCTG to CAGCACTGCAAATGGCTTCC, the remaining target (mRNA or protein) (fraction of control) falls from at least 1 to 0.8.

Going from CCCTGTATGTGCTCCATTGA to CCTGCTGGCTTCTCCTCCTC, the remaining target (mRNA or protein) (fraction of control) rises from 0.38 to 0.92.

Compared with CGCTCCTCCTCCCCGCGGCG, CGGGAGGCGGTCACATTCGG is lower in remaining target (mRNA or protein) (fraction of control): 0.35 for the first, 0.25 for the second.

CTCGCCCGCTCCTCCTCCCC and CTGAGAGGGCTGAGATGCGG cannot be ordered by remaining target (mRNA or protein) (fraction of control): at least 1 for the first, at least 1 for the second.

Going from CTGATTTCCAAAATCCCATG to CTGGCTTCTCCTCCTCCCCT, the remaining target (mRNA or protein) (fraction of control) rises from 0.26 to 0.95.

Compared with CTGGGCTGTTTGGTGCCTTA, GATGCAGCTTAAACAATTCT is higher in remaining target (mRNA or protein) (fraction of control): 0.8 for the first, 0.99 for the second.

Going from GCCGAGTGCCTTGCCTGGAA to GCCGCCCCAACGTCCTGTCG, the remaining target (mRNA or protein) (fraction of control) falls from 0.98 to 0.42.

First: GCTCCATTGATGCAGCTTGA
Second: GCTCCTGGAAGACAAAATTC
The remaining target (mRNA or protein) (fraction of control) of the first is lower: 0.63 for the first, 0.82 for the second.

Compared with GGTGAGGGAGCGGGAGGCGG, GGTGCAAAGTCAACTAGAAG is lower in remaining target (mRNA or protein) (fraction of control): 0.98 for the first, 0.88 for the second.

First: GTCTGGCGCTGCACCACTCT
Second: TCAGGGCTGGACTGCCTGCT
The remaining target (mRNA or protein) (fraction of control) of the first is lower: 0.35 for the first, 0.52 for the second.

First: TCCCGCCTGTGACATGCATT
Second: TCCTCCTCCCCGCGGCGGGT
The remaining target (mRNA or protein) (fraction of control) of the first is lower: 0.05 for the first, 0.95 for the second.

Going from TCTGGCGCTGCACCACTCTC to TGAAGGTGAGCTGGAGCCAT, the remaining target (mRNA or protein) (fraction of control) rises from 0.25 to at least 1.

First: TGTAGCCAACAGCTGGGGCT
Second: TGTGACTAGAGAAACAAGGC
The remaining target (mRNA or protein) (fraction of control) of the first is higher: 0.96 for the first, 0.68 for the second.

First: TTAAAATAACATAATTGAGG
Second: TTCGGCGGCAGCTTCTCGCC
The remaining target (mRNA or protein) (fraction of control) of the first is higher: 0.93 for the first, 0.37 for the second.

First: TTCTCCTCCTCCCCTGGCAG
Second: TTCTCGCCCGCTCCTCCTCC
The remaining target (mRNA or protein) (fraction of control) of the first is higher: 0.8 for the first, 0.65 for the second.

Compared with TTGAGCATGGGGAATGTGGG, TTGTCAGGTGCAATAAAAAC is higher in remaining target (mRNA or protein) (fraction of control): 0.63 for the first, 0.88 for the second.

— the OligoGym collection
